Test systems include SK-MEL-28; M14; SNB-19; NCI-H460; TK-10; UACC-257; NCI/ADR-RES; KM12; MDA-N; HL-60; OVCAR-8; SF-268; RPMI-8226; CAKI-1; LOX IMVI; HCT-116.
Common to all, as to experiment: NCI anticancer screen, dose series, 48 h

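Five concentrations, 48 hours, 96-well plates. GI50 marks 50% less growth.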 Activity calls are given as the source filed them. Rule as the data show it: active = GI50 up to about 1.1 µM and inactive = higher.

Consider `C=CC1OC(CCCOC(=O)C(C)(C)C)O[C@@H]1CC` (some centres undefined), for which the GI50 with SK-MEL-28 was > 100 µM (inactive); with M14, > 100 µM (inactive); in the experiment with SNB-19, > 100 µM (inactive); in the experiment on NCI-H460 it was 37.2 µM (inactive); in the experiment with TK-10, > 100 µM (inactive); in the experiment with UACC-257, > 100 µM (inactive). Moreover, the GI50 in the experiment with NCI/ADR-RES is > 100 µM (inactive); in the experiment on KM12, > 100 µM (inactive); with MDA-N it was > 100 µM (inactive); in the experiment with HL-60 it was 7.38 µM (inactive); with OVCAR-8, > 100 µM (inactive); in the experiment on SF-268 it was > 100 µM (inactive). The GI50 with RPMI-8226 and in the experiment with CAKI-1 was > 100 µM (inactive) in each case.
Consider `CCN1c2ccccc2NC(=S)c2c(-c3ccccc3)n[nH]c21`, for which the GI50 in the experiment with SK-MEL-28 is 45.6 µM (inactive); in the experiment on M14 it was 31.6 µM (inactive); in the experiment on LOX IMVI, 30.5 µM (inactive); with NCI-H460 it was 28.6 µM (inactive); in the experiment with TK-10, 48.4 µM (inactive); in the experiment with UACC-257 it was 48.2 µM (inactive). Further, the GI50 is 23.1 µM (inactive) in the experiment with NCI/ADR-RES; 31.7 µM (inactive) with KM12; 16.4 µM (inactive) in the experiment with MDA-N; 13.6 µM (inactive) in the experiment with HL-60; 39.4 µM (inactive) with OVCAR-8; 27.4 µM (inactive) in the experiment with SF-268. In addition, the GI50 was 33.2 µM (inactive) with HCT-116, 16.1 µM (inactive) with RPMI-8226 and 52.8 µM (inactive) in the experiment with CAKI-1.
For `O=S(=O)(c1ccccc1)C1CC(c2nc3ccccc3[nH]2)=NO1` (centres undefined), the GI50 in the experiment with SK-MEL-28 was > 100 µM (inactive); with SNB-19 it was > 100 µM (inactive); in the experiment on LOX IMVI, > 100 µM (inactive); in the experiment on NCI-H460 it was 50.1 µM (inactive); in the experiment with TK-10, 74.8 µM (inactive); in the experiment on UACC-257, > 100 µM (inactive). The GI50 with NCI/ADR-RES is > 100 µM (inactive); in the experiment with MDA-N it was > 100 µM (inactive); in the experiment on OVCAR-8 it was > 100 µM (inactive); with SF-268, > 100 µM (inactive); in the experiment on HCT-116, 52.6 µM (inactive); with RPMI-8226, 28.1 µM (inactive). For the same compound, the GI50 with CAKI-1 is 97.7 µM (inactive).
For the compound `Nc1ccn(C2OC(CO)C(O)C2(F)F)c(=O)n1` (centres undefined), the GI50 was 0.0313 µM (active) with M14; 0.129 µM (active) in the experiment with SNB-19; 0.157 µM (active) in the experiment with LOX IMVI; 0.0504 µM (active) in the experiment on NCI-H460; 0.312 µM (active) with UACC-257; 0.0755 µM (active) in the experiment on NCI/ADR-RES. Besides, the GI50 in the experiment on KM12 is 39.4 µM (inactive); in the experiment on MDA-N, 0.237 µM (active); in the experiment on HL-60, 0.0249 µM (active); in the experiment on OVCAR-8, 0.051 µM (active); with SF-268 it was 0.226 µM (active); in the experiment on HCT-116, 0.0579 µM (active). Besides, the results for the GI50 with RPMI-8226 and in the experiment with CAKI-1 were 0.281 µM (active) and 0.108 µM (active), respectively.
Regarding `CCOC(=O)c1c(NC(=O)Nc2ccccc2)c(C(N)=O)c2n1CCCCC2`, the GI50 in the experiment on SK-MEL-28, in the experiment with M14, in the experiment with SNB-19, in the experiment on LOX IMVI, in the experiment with NCI-H460 and in the experiment on TK-10 was > 100 µM (inactive) throughout. Moreover, the GI50 with UACC-257, with NCI/ADR-RES, with KM12, in the experiment with HL-60, in the experiment on OVCAR-8 and in the experiment on SF-268 was > 100 µM (inactive) each time. Further, the GI50 with HCT-116, with RPMI-8226 and in the experiment on CAKI-1 was > 100 µM (inactive) throughout.
On to `CCOP(=O)(COCCn1nc(Br)c(=O)[nH]c1=O)OCC`, for which the GI50 in the experiment with SK-MEL-28, in the experiment on M14, in the experiment with SNB-19, with LOX IMVI, in the experiment on NCI-H460 and in the experiment on UACC-257 was > 100 µM (inactive) in each case. Besides, the GI50 in the experiment with NCI/ADR-RES, with KM12, in the experiment with MDA-N, in the experiment with HL-60, in the experiment with OVCAR-8 and in the experiment with SF-268 was > 100 µM (inactive) each time. In addition, the GI50 with RPMI-8226 and in the experiment with CAKI-1 was > 100 µM (inactive) throughout.
Regarding `COc1cc(C2S/C(=C/c3ccccc3)C(=O)N2c2cccc(NC(C)=O)c2)cc(OC)c1OC` (centres undefined), the GI50 in the experiment on SK-MEL-28 was 90.2 µM (inactive); with M14, 34.4 µM (inactive); in the experiment with SNB-19, 58.7 µM (inactive); in the experiment on LOX IMVI it was 21.5 µM (inactive); with TK-10 it was 80.5 µM (inactive); in the experiment with UACC-257, 66.2 µM (inactive). For the same compound, the GI50 with NCI/ADR-RES was 27.9 µM (inactive); in the experiment on KM12 it was 27.2 µM (inactive); in the experiment with MDA-N, 26.7 µM (inactive); in the experiment with OVCAR-8 it was 29.9 µM (inactive); with SF-268, 24.1 µM (inactive); in the experiment with HCT-116, 17.2 µM (inactive). For the same compound, the GI50 in the experiment with CAKI-1 is 25.9 µM (inactive).
For the compound `Cc1ccc(C2=C(C#N)C(N)OC3=C2COc2ccccc23)cc1` (centres undefined), the GI50 with SK-MEL-28 is 31.6 µM (inactive); in the experiment with M14, > 100 µM (inactive); in the experiment with SNB-19 it was 19 µM (inactive); with LOX IMVI it was 88.3 µM (inactive); in the experiment on NCI-H460, 43.5 µM (inactive); in the experiment on TK-10, 17.2 µM (inactive). In addition, the GI50 in the experiment on UACC-257 was > 100 µM (inactive); in the experiment on NCI/ADR-RES, 30.3 µM (inactive); in the experiment with KM12, > 100 µM (inactive); in the experiment with MDA-N, 44.2 µM (inactive); in the experiment on HL-60, > 100 µM (inactive); in the experiment with SF-268, 27 µM (inactive). Moreover, the GI50 in the experiment on HCT-116 is 31.9 µM (inactive); in the experiment on RPMI-8226, > 100 µM (inactive).
`Cc1cc(O)c(C(C)C)cc1SC#N`: the GI50 in the experiment on SK-MEL-28 is 17.4 µM (inactive); with LOX IMVI, 11.9 µM (inactive); in the experiment on NCI-H460 it was 16.4 µM (inactive); in the experiment on TK-10 it was 16.9 µM (inactive); with UACC-257, 16.6 µM (inactive); in the experiment on NCI/ADR-RES it was 19.2 µM (inactive). The GI50 was 17.6 µM (inactive) with KM12; 35.1 µM (inactive) with HL-60; 17.7 µM (inactive) in the experiment on OVCAR-8; 19.3 µM (inactive) in the experiment on SF-268; 2.16 µM (inactive) in the experiment on RPMI-8226; 15 µM (inactive) in the experiment on CAKI-1.
Regarding `CC(=O)OC[C@H]1[C@@H]2C(CC[C@]13CO3)OC(=O)CC(C)[C@]2(C)CCc1ccoc1` (some centres undefined), the GI50 in the experiment on SK-MEL-28, in the experiment with M14, with SNB-19, in the experiment with LOX IMVI, in the experiment with NCI-H460 and with TK-10 was > 100 µM (inactive) in each case. Further, the GI50 in the experiment on UACC-257, in the experiment with NCI/ADR-RES, in the experiment on KM12, in the experiment on MDA-N, with HL-60 and in the experiment on OVCAR-8 was > 100 µM (inactive) each time. For the same compound, the GI50 in the experiment with SF-268, in the experiment with HCT-116 and with CAKI-1 was > 100 µM (inactive) throughout.

Values taken from ChEMBL document CHEMBL1201862, “PubChem BioAssay data set” (2004).
